Reference: ChEMBL document CHEMBL3763012, “From Sphingosine Kinase to Dihydroceramide Desaturase: A Structure-Activity Relationship (SAR) Study of the Enzyme Inhibitory and Anticancer Activity of 4-((4-(4-Chlorophenyl)thiazol-2-yl)amino)phenol (SKI-II)” (J Med Chem, 2016)
Each block holds one molecule with its values, some of them ahead of it. The source made the active and inactive calls. The rule behind the calls is not given here.

Assays:
[1] = biological target: T1, Sphingolipid delta(4)-desaturase DES1 (Homo sapiens) (UniProt O15121); experiment: Inhibition of Des1 activity in human Jurkat cells using fluorescence labeled DhCer-C6-NBD as substrate at 1 and 10 uM after 3 hrs by HPLC method; format: cell-based
T1 sequence (whole entry): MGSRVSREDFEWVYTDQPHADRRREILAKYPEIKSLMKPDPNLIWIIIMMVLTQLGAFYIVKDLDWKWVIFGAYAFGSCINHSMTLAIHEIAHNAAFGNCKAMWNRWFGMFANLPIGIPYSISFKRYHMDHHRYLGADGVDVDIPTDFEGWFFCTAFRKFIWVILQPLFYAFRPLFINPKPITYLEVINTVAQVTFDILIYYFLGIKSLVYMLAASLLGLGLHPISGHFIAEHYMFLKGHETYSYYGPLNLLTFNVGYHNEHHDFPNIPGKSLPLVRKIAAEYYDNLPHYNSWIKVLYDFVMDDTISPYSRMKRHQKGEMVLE

[2] = biological target: T1, Sphingolipid delta(4)-desaturase DES1 (Homo sapiens); experiment: Inhibition of Des1 activity in human Jurkat cells using fluorescence labeled DhCer-C6-NBD as substrate at 0.1 to 10 uM after 3 hrs by HPLC method; format: cell-based
[3] = biological target: T1, Sphingolipid delta(4)-desaturase DES1 (Homo sapiens); experiment: Irreversible inhibition of Des1 activity in human Jurkat cells treated with parent compound treated with fenretinide using fluorescence labeled DhCer-C6-NBD as substrate by HPLC method; format: cell-based; conditions: TDE = time-dependent effect
[4] = biological target: T2, Sphingolipid delta(4)-desaturase DES1 (Homo sapiens, UniProt O15121); experiment: Drug level in human Jurkat cells assessed as DES1-mediated compound oxidation treated with fenretinide; format: ADME, cell-based
T2 sequence (O15121 whole entry): T1 sequence (whole entry)

[5] = Antiproliferative activity against human PC3 cells after 72 hrs by MTS assay; format: functional; conditions: PC-3, 72 h
Sphingosine kinase 1 [6] = biological target: T3, Sphingosine kinase 1 (Homo sapiens, UniProt Q9NYA1); experiment: Inhibition of recombinant His-tagged human SK1 assessed as production of [32P]-S1P using 10 uM sphingosine as substrate by TLC method in presence of 1 mM [gamma32P]-ATP
Sphingosine kinase 2 [7] = biological target: T4, Sphingosine kinase 2 (Homo sapiens, UniProt Q9NRA0); experiment: Inhibition of recombinant human SK2 assessed as production of [32P] S1P using 10 uM sphingosine as substrate by TLC method in presence of 1 mM [gamma32P]-ATP relative to control
T4 sequence (Q9NRA0 whole entry): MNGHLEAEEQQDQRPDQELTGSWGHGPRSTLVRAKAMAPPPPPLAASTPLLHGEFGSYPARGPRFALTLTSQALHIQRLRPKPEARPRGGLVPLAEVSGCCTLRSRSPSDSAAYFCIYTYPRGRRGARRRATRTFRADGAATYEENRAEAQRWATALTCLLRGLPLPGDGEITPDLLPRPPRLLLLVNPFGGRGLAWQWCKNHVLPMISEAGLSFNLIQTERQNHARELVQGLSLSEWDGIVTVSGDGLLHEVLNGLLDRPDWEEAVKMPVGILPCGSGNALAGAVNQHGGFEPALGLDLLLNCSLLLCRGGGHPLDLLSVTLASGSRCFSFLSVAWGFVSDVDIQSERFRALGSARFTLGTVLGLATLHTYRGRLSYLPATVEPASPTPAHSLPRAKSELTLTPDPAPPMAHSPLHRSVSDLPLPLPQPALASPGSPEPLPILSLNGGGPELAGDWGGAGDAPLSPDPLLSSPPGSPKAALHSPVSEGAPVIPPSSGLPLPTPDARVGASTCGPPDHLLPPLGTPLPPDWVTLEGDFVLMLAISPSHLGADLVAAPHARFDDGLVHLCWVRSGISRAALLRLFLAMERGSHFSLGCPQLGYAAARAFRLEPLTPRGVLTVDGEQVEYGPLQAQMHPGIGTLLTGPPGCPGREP

[8] = biological target: T5, Sphingosine kinase 2 (Homo sapiens) (UniProt Q9NRA0); experiment: Inhibition of recombinant human SK2 assessed as production of [32P] S1P using sphingosine as substrate at 10 uM by TLC method in presence of 100 uM [gamma32P]-ATP relative to control; values are per cent of control
T5 sequence (whole entry): T4 sequence (Q9NRA0 whole entry)

Sphingosine kinase 1 [9] = biological target: T3, Sphingosine kinase 1; experiment: Inhibition of SK1 (unknown origin)
Sphingosine kinase 2 [10] = biological target: T4, Sphingosine kinase 2; experiment: Inhibition of SK2 (unknown origin)
[11] = biological target: T1, Sphingolipid delta(4)-desaturase DES1 (Homo sapiens); experiment: Inhibition of Des1 activity in human Jurkat cells using fluorescence labeled DhCer-C6-NBD as substrate at 10 uM after 3 hrs by HPLC method; format: cell-based
[12] = Cytotoxicity against human PC3 cells after 72 hrs by MTT assay; format: functional; conditions: PC-3, 72 h
[13] = biological target: T2, Sphingolipid delta(4)-desaturase DES1; experiment: Drug metabolism in human Jurkat cells assessed as DES1-mediated (2E,4E,6E,8E)-3,7-dimethyl-N-(4-oxocyclohexa-2,5-dienylidene)-9-(2,6,6-trimethylcyclohex-1-enyl)nona-2,4,6,8-tetraenamide formation; format: ADME, cell-based
Sphingosine kinase 2 [14] = biological target: T4, Sphingosine kinase 2; experiment: Inhibition of recombinant SK2 (unknown origin) expressed in Sf9 cells assessed as [33P]S1P formation using D-erythro sphingosine as substrate and gamma[33P]ATP by liquid scintillation counting
Sphingosine kinase 1 [15] = biological target: T3, Sphingosine kinase 1; experiment: Inhibition of human SK1 using D-erythro sphingosine as substrate and gamma[33P]ATP by Lineweaver-Burk plot analysis
Sphingosine kinase 2 [16] = biological target: T4, Sphingosine kinase 2; experiment: Inhibition of human SK2 using D-erythro sphingosine as substrate and gamma[33P]ATP by Lineweaver-Burk plot analysis
HEK293 = experiment: Induction of SK1 degradation in HEK293 cells at 10 uM after 16 hrs by western blotting analysis in presence of proteasome inhibitor MG132; format: functional, cell-based; conditions: Homo sapiens
PC-3 [17] = experiment: Increase in total dhCer level in human PC3 cells at 10 uM after 5 hrs by LC-MS analysis; format: functional, cell-based
PC-3 [18] = experiment: Anticlonogenic activity against human PC3 cells at 0.05 to 10 uM after 21 days by soft agar colony forming assay; format: functional, cell-based
[19] = biological target: T1, Sphingolipid delta(4)-desaturase DES1 (Homo sapiens); experiment: Inhibition of Des1 (unknown origin) at 30 uM

T3 sequence (Q9NYA1 whole entry): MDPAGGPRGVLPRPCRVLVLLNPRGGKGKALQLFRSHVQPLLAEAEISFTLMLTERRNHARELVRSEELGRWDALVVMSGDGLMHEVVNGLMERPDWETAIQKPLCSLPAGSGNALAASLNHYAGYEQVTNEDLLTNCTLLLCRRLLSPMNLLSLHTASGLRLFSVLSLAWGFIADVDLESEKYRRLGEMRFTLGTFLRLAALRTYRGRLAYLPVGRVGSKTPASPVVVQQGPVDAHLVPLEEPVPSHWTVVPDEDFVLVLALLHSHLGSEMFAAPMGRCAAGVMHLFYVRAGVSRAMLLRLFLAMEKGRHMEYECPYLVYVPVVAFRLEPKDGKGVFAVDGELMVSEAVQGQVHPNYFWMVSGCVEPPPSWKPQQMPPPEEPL

Structure (SMILES): CC1=C(/C=C/C(C)=C/C=C/C(C)=C/C(=O)N=C2C=CC(=O)C=C2)C(C)(C)CCC1
inhibition [3]: tde
Drug metabolism [4]: metabolite_detected

Structure (SMILES): OC[C@H]1C[C@H](O)CN1CCCc1ccc(Nc2nc(-c3cccc(C(F)(F)F)c3)cs2)cc1
IC50 (Sphingosine kinase 1 [9]): 20 nM
IC50 (Sphingosine kinase 2 [10]): 148 nM

Structure (SMILES): CC1=C(/C=C/C(C)=C/C=C/C(C)=C/C(=O)Nc2ccc(O)cc2)C(C)(C)CCC1 [FENRETINIDE]
GI50 [12]: 2000 nM
Drug metabolism [13]: metabolite_detected

Structure (SMILES): CCCCCCCCc1ccc(-c2noc([C@H]3CCCN3C(=N)N)n2)cc1
Ki (Sphingosine kinase 2 [14]): 1300 nM

Structure (SMILES): Cc1ccc(S(=O)(=O)Nc2ccccc2/C=N/c2ccccc2NS(=O)(=O)c2ccc(C)cc2)cc1
Ki (Sphingosine kinase 1 [15]): 27 µM
Ki (Sphingosine kinase 2 [16]): 6.9 µM

Structure (SMILES): Oc1ccc(Nc2nnc(-c3ccc(I)cc3)o2)cc1
inhibition [2]: Active

Structure (SMILES): Cc1cc(CS(=O)(=O)c2ccccc2)cc(OCc2ccc(CN3CCC[C@@H]3CO)cc2)c1
GI50 [5]: 19 µM
Activity (HEK293): Active
residual activity [8]: 45%

Structure (SMILES): CCCCCCCc1nc(-c2ccc(CNC(=O)[C@H]3NCC[C@@H]3O)cc2)no1
GI50 [5]: > 100 µM
Activity (HEK293): Active
residual activity [8]: 112%

Structure (SMILES): Oc1ccc(Nc2nc(-c3ccc(Cl)cc3)cs2)cc1
GI50 [5]: 11 µM
Activity (HEK293): Active
inhibition [2]: Active
Activity (PC-3 [17]): Active
Activity (PC-3 [18]): Active
residual activity [8]: 90%

Structure (SMILES): O=C(NCc1ccncc1)C12CC3CC(C1)CC(c1ccc(Cl)cc1)(C3)C2
inhibition [19]: 40%

The next lines start with results.

inhibition [1]: Active
Structure (SMILES): N/C(=N\O)c1ccc(Nc2nnc(-c3ccc(Cl)cc3)o2)cc1

inhibition [2]: Active
Structure (SMILES): Oc1ccc(Nc2nnc(-c3ccc(Cl)cc3)o2)cc1

IC50 (Sphingosine kinase 1 [6]): 3.1 µM
IC50 (Sphingosine kinase 2 [7]): 5.5 µM
residual activity [8]: 39%
Structure (SMILES): Clc1ccc(-c2nnc(NCc3ccncc3)o2)cc1
GI50 [5]: > 100 µM

inhibition [2]: inactive
Structure (SMILES): Oc1ccc(-c2nnc(-c3ccc(Cl)cc3)o2)cc1

inhibition [11]: inactive
Structure (SMILES): N/C(=N\O)c1ccc(-c2nnc(-c3ccc(Cl)cc3)o2)cc1

residual activity [8]: 70%
Structure (SMILES): Clc1ccc(-c2nnc(Nc3ccc(-c4nn[nH]n4)cc3)o2)cc1
GI50 [5]: 15 µM
